In brackets after ≈: the same amount, converted by molar mass.
How the values were obtained:
L. major promastigotes = experiment: L. major promastigote viability, propidium iodide flow cytometry; format: cell-based, Leishmania major; settings: 50 μM, 48 hours at 24° C.
Method: 5×10^5 L. major promastigotes were treated with vehicle control (DMSO), […], 5 μM Compound 5, 50 μM Compound 2, 50 μM Compound 5, or […] for 48 hours at 24° C. Promastigote viability was then assessed via a propidium iodide flow cytometry assay. Propidium iodide is only taken up by dead cells, and the presence of fluorescence in a promastigote sample reflects compound efficacy.

T. cruzi epimastigotes [1] = experiment: T. cruzi epimastigote toxicity, visually assessed; format: cell-based, Trypanosoma cruzi; settings: 48 hours at 30° C.; for killing at 100 µM: Trypanosoma cruzi, epimastigotes, read-out: T. cruzi death @ 100 μM
Method: A 1:20 working dilution of T. cruzi epimastigotes was prepared in LIT1029 medium from a saturated (˜4×10^6 cells/mL) culture. 100 μL of the 1:20 working dilution was plated, and the epimastigotes were incubated with a compound of the disclosure at varying concentrations for 48 hours at 30° C. Following T. cruzi epimastigote treatment with a compound of the disclosure, the toxicity of compounds towards T. cruzi epimastigotes was visually assessed.

[2] = tested on: T. cruzi amastigotes and trypomastigotes; experiment: Viability of tdTomato T. cruzi amastigotes and trypomastigotes, fluorescence; format: cell-based, Trypanosoma cruzi; settings: 25 μM, 48 hours at 37° C.
Method: The viability of a mixture of T. cruzi amastigotes and trypomastigotes after exposure to 25 μM of the compounds of the disclosure was determined. 2×10^5 parasites/100 μL were plated in 96-well plates. Parasites expressing tdTomato were used to assess parasite viability using fluorescence measurements. Parasites were incubated with 25 μM of the compounds of the disclosure for 48 hours at 37° C. After the incubation period, the viability of amastigotes and trypomastigotes was assessed by measuring the fluorescence intensity at 510 nm-590 nm using a Tecan plate reader, where the presence of fluorescence indicated viable amastigotes/trypomastigotes.

[3] = tested on: T. cruzi-infected ARPE cells; experiment: Treatment of T. cruzi-infected ARPE cells, imaging; format: cell-based, Trypanosoma cruzi
Method: Four confocal dishes were prepared with 10,000 ARPE cells, which were adhered overnight at 37° C. The four dishes were ARPE control cells, non-infected but 5 μM Compound 2-treated cells, non-treated but infected cells, and infected cells treated with 5 μM Compound 2. For the infected dishes, ARPE media was removed and replaced with 2 mL of infectious amastigotes and trypomastigotes from the ARPE passaged plate. The dishes were then incubated for 2 hours at 37° C. The treated dishes were incubated with 5 μM Compound 2 for 5 days at 37° C., while untreated dishes were incubated in fresh media without Compound 2 for 5 days at 37° C. After the 5-day period, cells were washed 3 times in ARPE media and fixed with 1 mL 4% paraformaldehyde. Cells were visualized using an EVOS cell imaging system. Amastigotes appeared as small, dense, and mostly birefringent in images.
The experiment above was repeated using 1 μM Compound 2.
Four confocal dishes with 10,000 ARPE cells were prepared and adhered overnight at 37° C. The four dishes were: 1) ARPE control cells; 2) non-infected cells treated with 1 μM Compound 2; 3) untreated infected cells; and 4) T. cruzi-infected cells treated with 1 μM Compound 2. For the infected dishes, ARPE media was removed and replaced with 2 mL of infectious amastigotes and trypomastigotes expressing tdTomato (from ARPE passaged plate). The dishes were then incubated overnight for 7 days at 37° C. The untreated dishes were incubated in fresh media without Compound 2 for 7 days at 37° C. After the 7-day incubation period, cells were washed 3 times in ARPE media and fixed with 1 mL 4% paraformaldehyde. tdTomato fluorescence, which is indicative of viable T. cruzi, was then observed via fluorescence microscopy.
ARPE cells were plated in confocal dishes (20,000 cells per dish) and incubated overnight at 37° C. Cells were infected with T. cruzi by incubating cells with T. cruzi amastigotes and trypomastigotes expressing tdTomato (˜2×10^5 cells in total) for 24 hours at 37° C. Uninfected cells served as controls. Following the T. cruzi incubation period, extracellular parasites were removed, and the medium was replaced with DMEM/F12 culture media with or without 1 μM Compound 2. The cells were incubated further for 24 hours at 37° C. Cells were then treated two more times with fresh DMEM/F12 culture media with or without 1 μM Compound 2 and incubated for 24 hours at 37° C. Following fixation of cells in 4% paraformaldehyde, plates were imaged for tdTomato fluorescence, which is indicative of viable T. cruzi, such that the effects of repeated Compound 2 treatment could be compared to a single treatment with Compound 2.
ARPE cells were plated in confocal dishes (20,000 cells per dish) and incubated overnight at 37° C. Cells were infected with T. cruzi by incubating cells with T. cruzi amastigotes and trypomastigotes expressing tdTomato (˜2×10^5 cells in total) for 24 hours at 37° C. before washing dishes three times with DMEM/F12 culture media. Uninfected plates served as controls. The dishes were then treated with 2 μM Compound 2 or left untreated as a control and incubated further for 5 days at 37° C. The treated dish received a single treatment of Compound 2 on day 1. Dishes were washed twice with DMEM/F12 media and fixed in 4% paraformaldehyde before being imaged using confocal microscopy. […] The other Compound 2 dishes that were not incubated with T. cruzi a second time were used as controls. Following fixation of cells in 4% paraformaldehyde, tdTomato fluorescence of the cells was assessed using confocal microscopy.
ARPE cells were plated in confocal dishes (20,000 cells per dish) and incubated overnight at 37° C. Dishes were incubated with T. cruzi amastigotes and trypomastigotes expressing tdTomato (˜2×10^5 cells) for 48 hours at 37° C. Untreated cells served as controls. Cells were then washed 3 times with cell medium, treated with 5 μM Compound 2 or left untreated as a control and incubated further for 2 days at 37° C. […]

T. cruzi epimastigotes [4] = experiment: ATP viability assay, reference drugs, epimastigotes; format: cell-based; settings: Trypanosoma cruzi, 48 hours at 37° C.
Method: (§1) T. cruzi epimastigotes, amastigotes, or trypomastigotes were plated at 2×10^5 cells per well in a 96 well plate. Plated epimastigotes were prepared in LIT1029 medium, while amastigotes and trypomastigotes were collected after being passaged in ARPE cells. T. cruzi cells were treated with 0 μM, 0.39 μM, 0.78 μM, 1.56 μM, 3.125 μM, 6.25 μM, 12.5 μM, 25 μM, 50 μM, or 100 μM of nifurtimox for 48 hours at 37° C. After treatment with nifurtimox, T. cruzi viability was assessed via an ATP assay. An increase in RLU indicated the presence of ATP and viable cells.
as §1, with “benznidazole” for “nifurtimox”, “benznidazole,” for “nifurtimox,”, “RLUs” for “RLU”

T. cruzi amastigotes = experiment: ATP viability assay, reference drugs, amastigotes; format: cell-based; settings: Trypanosoma cruzi, 48 hours at 37° C.
Method: as §1
as §1, with “benznidazole” for “nifurtimox”, “benznidazole,” for “nifurtimox,”, “RLUs” for “RLU”

T. cruzi trypomastigotes = experiment: ATP viability assay, reference drugs, trypomastigotes; format: cell-based; settings: Trypanosoma cruzi, 48 hours at 37° C.
Method: as §1
as §1, with “benznidazole” for “nifurtimox”, “benznidazole,” for “nifurtimox,”, “RLUs” for “RLU”

[5] = tested on: T. cruzi-infected VERO cells; experiment: Treatment of T. cruzi-infected VERO cells, confocal microscopy; format: cell-based, Trypanosoma cruzi; settings: 5 μM, 5 days
Method: 2×10^4 VERO cells were plated in individual confocal dishes and allowed to adhere for 16 hours at 37° C. […] The T. cruzi-infected dishes were incubated with ˜2×10^6 T. cruzi/mL for 24 hours at 37° C. to allow for internalization of parasites. T. cruzi parasites expressed tdTomato, which allowed for visualization of parasites within cells. After the 24-hour T. cruzi incubation period, extracellular parasites were removed from culture dishes. The cells were washed 3 times with cell culture media (10% fetal bovine serum; 1% penicillin/streptomycin). Designated plates were then incubated with 5 μM Compound 2 or 5 μM Compound 7 for 5 days at 37° C. Cells were then fixed in 2% paraformaldehyde and tdTomato fluorescence in cells was assessed via confocal microscopy.

L. major-infected MDMs = experiment: L. major-infected human MDMs, quantitative cell bioimaging; format: cell-based, Leishmania major; settings: 2 μM or 20 μM
Method: Human MDMs were cultured on glass slides and incubated with metacyclic L. major for 24 hours to allow for internalization of parasites. After the 24-hour L. major incubation period, extracellular parasites were removed from the culture. 24 hours after the removal of extracellular parasites, infected cells were treated with vehicle control (DMSO), 5 μM MTF, 1 μM Compound 2, 5 μM Compound 2, 10 μM Compound 2, 2 μM Compound 7, or 20 μM Compound 7. Following treatment, the cells were fixed with 2% paraformaldehyde and subsequently stained with the DNA stain Hoechst 33342. The stained cover slips were transferred onto glass slides, and quantitative cell bioimaging was utilized to determine the number of amastigotes per 500 cells using a CellInsight CX5 High Content screening platform.

Structure (SMILES): CC(C)c1ccc(C(C(=O)NO)c2c(-c3ccc4ccccc4c3)[nH]c3ccccc23)cc1 (centres unmarked) [Compound 5, N-hydroxy-2-(4-isopropylphenyl)-2-(2-(naphthalen-2-yl)-1H-indol-3-yl)acetamide]
- efficacy on L. major promastigote survival (L. major promastigotes): higher efficacy than MTF or the vehicle control

Structure (SMILES): N#CC(c1ccccc1)c1c(-c2ccc3ccccc3c2)[nH]c2ccccc12 (centres unmarked) [Compound 9, 2-(2-(naphthalen-2-yl)-1H-indol-3-yl)-2-phenylacetonitrile]
- Concentration at which T. cruzi epimastigote death is greater than or equal to ~99% (T. cruzi epimastigotes [1]): ≥100 µM
- killing at 100 µM (T. cruzi epimastigotes [1]): 100%

Structure (SMILES): COc1ccc(C(C(=O)NO)c2c(-c3ccc4ccccc4c3)[nH]c3ccccc23)cc1 (centres unmarked) [Compound 6, N-hydroxy-2-(4-methoxyphenyl)-2-(2-(naphthalen-2-yl)-1H-indol-3-yl)acetamide]
- killing at 100 µM (T. cruzi epimastigotes [1]): 0%

Structure (SMILES): CCCCn1c(-c2ccc3ccccc3c2)c(C(C(=O)NO)c2ccccc2)c2ccccc21 (centres unmarked) [Compound 10, 2-(1-butyl-2-(naphthalen-2-yl)-1H-indol-3-yl)-N-hydroxy-2-phenylacetamide]
- Concentration at which T. cruzi epimastigote death is greater than or equal to ~99% (T. cruzi epimastigotes [1]): 25 µM
- killing at 100 µM (T. cruzi epimastigotes [1]): > 50%
- toxicity to T. cruzi amastigotes and trypomastigotes [2]: most toxic

Structure (SMILES): NC(=O)C(c1ccccc1)c1c(-c2ccc3ccccc3c2)[nH]c2ccccc12 (centres unmarked) [Compound 8, 2-(2-(naphthalen-2-yl)-1H-indol-3-yl)-2-phenylacetamide]
- Concentration at which T. cruzi epimastigote death is greater than or equal to ~99% (T. cruzi epimastigotes [1]): 50 µM
- killing at 100 µM (T. cruzi epimastigotes [1]): 100%

Structure (SMILES): O=C(Cn1ccnc1[N+](=O)[O-])NCc1ccccc1 [benznidazole]
- clearance of T. cruzi infection in ARPE cells ([3]; 2 μM, 2 days): not cleared from T. cruzi infection
- MIC (T. cruzi epimastigotes [4]): > 100 µM
- MIC (T. cruzi amastigotes): 100 µM (≈ 26 µg/mL)
- MIC (T. cruzi trypomastigotes): > 100 µM

Structure (SMILES): Cn1c(-c2ccc3ccccc3c2)c(C(C(=O)NO)c2ccccc2)c2ccccc21 (centres unmarked) [Compound 7, N-hydroxy-2-(1-methyl-2-(naphthalen-2-yl)-1H-indol-3-yl)-2-phenylacetamide]
- Concentration at which T. cruzi epimastigote death is greater than or equal to ~99% (T. cruzi epimastigotes [1]): ≥100 µM
- killing at 100 µM (T. cruzi epimastigotes [1]): 100%
- toxicity to T. cruzi amastigotes and trypomastigotes [2]: most toxic
- parasitic burden ([3]; 1 μM, 3 days): decreased parasitic burden
- protection from a recurring infection ([3]; 1 μM, 3 days): not protected from a recurring infection
- T. cruzi in ARPE cells (CherryTomato fluorescence) ([3]; 2 μM, two days): eradicated T. cruzi
- T. cruzi infections in ARPE cells ([3]; 2.5 μM, 3 days): minimal
- T. cruzi in ARPE cells ([3]; 5 μM, 3 days): eradicated
- intracellular T. cruzi and re-infection ([3]; single dose of 2 μM, 2 days): killed intracellular T. cruzi and protected the cells from re-infection
- T. cruzi infection in VERO cells [5]: eradication of T. cruzi infection
- number of parasites per cell (L. major-infected MDMs): decreased the number of parasites per cell

Structure (SMILES): CC1CS(=O)(=O)CCN1/N=C/c1ccc([N+](=O)[O-])o1 (centres unmarked) [nifurtimox]
- MIC (T. cruzi epimastigotes [4]): 25 µM (≈ 7.18 µg/mL)
- MIC (T. cruzi amastigotes): 3.12 µM (≈ 0.896 µg/mL)
- MIC (T. cruzi trypomastigotes): 6.25 µM (≈ 1.8 µg/mL)

Structure (SMILES): O=C(NO)C(c1ccccc1)c1c(-c2ccccc2)[nH]c2ccccc12 (centres unmarked) [Compound 1, N-hydroxy-2-phenyl-2-(2-phenyl-1H-indol-3-yl)acetamide]
- Concentration at which T. cruzi epimastigote death is greater than or equal to ~99% (T. cruzi epimastigotes [1]): 100 µM
- killing at 100 µM (T. cruzi epimastigotes [1]): 100%
- toxicity to T. cruzi amastigotes and trypomastigotes [2]: most toxic
- number of intracellular parasites in ARPE culture ([3]; 10 μM once per day for 2 days): decreased the number of intracellular parasites

Structure (SMILES): Cc1[nH]c2ccccc2c1C(C(=O)NO)c1ccccc1 (centres unmarked) [Compound 3, N-hydroxy-2-(2-methyl-1H-indol-3-yl)-2-phenylacetamide]
- killing at 100 µM (T. cruzi epimastigotes [1]): 0%

Structure (SMILES): CN(C)c1ccc(C(C(=O)NO)c2c(-c3ccc4ccccc4c3)[nH]c3ccccc23)cc1 (centres unmarked) [Compound 11, 2-(4-(dimethylamino)phenyl)-N-hydroxy-2-(2-(naphthalen-2-yl)-1H-indol-3-yl)acetamide]
- Concentration at which T. cruzi epimastigote death is greater than or equal to ~99% (T. cruzi epimastigotes [1]): 100 µM
- killing at 100 µM (T. cruzi epimastigotes [1]): 100%

Structure (SMILES): O=C(NO)C(c1ccccc1)c1c(-c2cccc3ccccc23)[nH]c2c1ccc1ccccc12 (centres unmarked) [Compound 4, N-hydroxy-2-(2-(naphthalen-1-yl)-1H-benzo[g]indol-3-yl)-2-phenylacetamide]
- killing at 100 µM (T. cruzi epimastigotes [1]): 0%
